This is an account of results in patent US10550143B2, “C,O-spiro aryl glycoside compounds, preparation therefor and use thereof” (SHANGHAI INSTITUTE OF MATERIA MEDICA, CHINESE ACADEMY OF …, priority 2015, dated 2020).

For the assay, the target named is T1, human sodium-glucose cotransporter 2 (SGLT2) (Homo sapiens, UniProt P31639).
T1 construct: expressed in transfected cells; host or cells: NIH3T3 (mouse fibroblast) cells expressing hSGLT2
T1 sequence (P31639 1-672): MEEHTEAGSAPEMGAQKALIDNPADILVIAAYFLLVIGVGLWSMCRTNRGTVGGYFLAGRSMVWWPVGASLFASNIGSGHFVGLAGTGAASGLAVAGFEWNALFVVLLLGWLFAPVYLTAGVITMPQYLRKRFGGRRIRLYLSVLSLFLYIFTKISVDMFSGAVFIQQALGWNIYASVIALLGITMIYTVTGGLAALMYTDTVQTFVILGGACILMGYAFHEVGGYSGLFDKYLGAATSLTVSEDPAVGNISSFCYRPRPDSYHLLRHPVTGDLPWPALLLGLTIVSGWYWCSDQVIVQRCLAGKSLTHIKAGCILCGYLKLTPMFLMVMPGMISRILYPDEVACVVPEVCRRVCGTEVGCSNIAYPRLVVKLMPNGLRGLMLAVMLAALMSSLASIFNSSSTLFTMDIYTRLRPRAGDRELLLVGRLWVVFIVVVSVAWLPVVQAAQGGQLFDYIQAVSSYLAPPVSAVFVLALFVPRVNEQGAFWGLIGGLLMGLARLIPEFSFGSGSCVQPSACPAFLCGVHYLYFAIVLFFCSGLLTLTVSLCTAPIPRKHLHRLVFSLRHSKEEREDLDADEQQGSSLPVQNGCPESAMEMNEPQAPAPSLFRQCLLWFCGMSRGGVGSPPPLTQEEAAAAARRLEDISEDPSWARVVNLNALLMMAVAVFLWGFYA
The assay is described as follows: In vitro SGLT2 inhibition, methyl-α-D-[U-14C]glucopyranoside uptake in NIH3T3-hSGLT2 cells. The assay is classed as cell-based. The note with it: for inhibition at 0.01 µM: SGLT2, 10 nM, read-out: % Inhibition rate ± SD 10 nM; for inhibition at 0.1 µM: SGLT2, 100 nM, read-out: % Inhibition rate ± SD 100 nM. Here is the method:
Inhibition of the compounds of formula I against human sodium-glucose cotransporter 2 (SGLT2) was determined experimentally and the experimental procedures were carried out as reference^1.
Methyl-α-D-[U-^14C] glucopyranoside (Perkin Elmer) Dimethylsulfoxide (Genebase, Prod No: 0231)
(1) Primary screening of hSGLT2 are conducted with two concentrations, 100 nM and 10 nM;
SGLT2 transports D-glucose at 1:1 sodium-glucose ratio, glucose is replaced by the non-metabolic and isotope labeled methyl-aD-[U-^14C] glucopyranoside and methyl-aD-glucopyranoside, and the amount of isotope transferred into the cells was determined.
1) 0.2% gelatin in a 96-well plate was put in a 37° C. incubator for further use;
2) NIH3T3-hSGLT2 cells were injected into 96-well plates, 40000/well, and 100 μL culture medium per well:
3) the fluid was changed in the next day, and sodium butyrate was added into medium at a final concentration of 2 mM;
4) wash the cells with 100 μL of KRH—Na^+ for 3 times and incubate cells with 50 μL for 30 minutes. Cells were changed to 50 μL of compound in KRH—Na^+, uptake buffer (KRH—Na^+ and methyl-α-D-[U-^14C]glucopyranoside and ⅙ mM methyl-α-D-glucopyranoside at 10 μL per well) was added; KRH-acetylcholine solution was used as background control instead of KRH-Na^+
5) washed with 100 μL PBS for 3 times, dried, 50 μL lysate and 150 μL scintillation fluid were added, the membrane was covered and flattened, shaken on a shaker to mix thoroughly, centrifuged at 1500 rpm at 4° C. for 3 min, taken out and read;
6) the results were analyses.
The inhibition rate (% Inhibiton) of each sample at each concentration was calculated by dividing the value of the compound well value minus the background value by the value of the DMSO control well value minus the background value.
IC50 is calculated as follows: […]
The y value is the activity or inhibition percent, the x value is the concentration of the corresponding compound, top (the maximum y value of the curve), bottom (the minimum y value of the curve).

What is called inhibition is the change of the read-out against control, counted positive when it falls. By IC50 is commonly meant the concentration at which inhibition is half-maximal. In the case of `CCc1ccc(Cc2ccc3c(c2)[C@]2(OC3)O[C@H](C)[C@@H](O)[C@H](O)[C@H]2O)s1` [Example A8, (1S,3′R,4′S,5′S,6′R)-6′-methyl-6-((5-ethylthienyl)-2-methyl)-3′,4′,5′,6′-tetrahydro-3H-spiro [isobenzofuran-1,2′-pyran]-3′,4′,5′-triol], the inhibition at 0.01 µM is 30.4 ± 4.8% and the inhibition at 0.1 µM turned out to be 59.1 ± 5.3%. Also, the IC50 (read-out: IC50 ± SD SGLT2) is 285 ± 117 nM.
Take `C[C@H]1O[C@]2(OCc3cc(Cl)c(Cc4ccc(C(F)(F)F)cc4)cc32)[C@H](O)[C@@H](O)[C@@H]1O` [Example A110]: the inhibition at 0.01 µM is 93 ± 5.9% and the inhibition at 0.1 µM is 71.5 ± 7.2%.
Regarding `CCc1ccc(C(=O)c2cc3c(cc2Cl)CO[C@]32O[C@H](C)[C@@H](O)[C@H](O)[C@H]2O)s1` [Example A113, ((1S,3′R,4′S,5′S,6′R)-5-chloro-3′,4′,5′-trihydroxy-6′-methyl-3′,4′,5′,6′-tetrahydro-3H-spiro[isobenzofuran-1,2′-pyran]-6-yl)(5-ethylthiophene-2-yl)ketone], the inhibition at 0.01 µM was 20.9 ± 16.3% and the inhibition at 0.1 µM turned out to be 22.5 ± 10.7%.
The corresponding values for `C[C@H]1O[C@]2(OCc3cc(Cl)c(C(=O)c4ccc(C(F)(F)F)cc4)cc32)[C@H](O)[C@@H](O)[C@@H]1O` [Example A111, ((1S,3′R,4′S,5′S,6′R)-5-chloro-3′,4′,5′-trihydroxy-6′-methyl-3′,4′,5′,6′-tetrahydro-3H-spiro[isobenzofuran-1,2′-pyran]-6-yl)(4-(trifluoromethyl)phenyl)ketone] are 46.2 ± 11.1% and 39.9 ± 10.8%.
Take `C[C@H]1O[C@]2(OCc3ccc(Cc4ccc5ccccc5c4)cc32)[C@H](O)[C@@H](O)[C@@H]1O` [Example A14, (1S,3′R,4′S,5′S,6′R)-6′-methyl-6-(naphthyl-2-methyl)-3′,4′,5′,6′-tetrahydro-3H-spiro [isobenzofuran-1,2′-pyran]-3′,4′,5′-triol]: the inhibition at 0.01 µM is 25.8 ± 15% and the inhibition at 0.1 µM worked out at 55.8 ± 13.2%.
`C[C@H]1O[C@]2(OCc3cc(F)c(Cc4cc5ccccc5s4)cc32)[C@H](O)[C@@H](O)[C@@H]1O` [Example A47, (1S,3′R,4′S,5′S,6′R)-6′-methyl-6-(benzo[b]thiophene-2-methyl)-5-fluoro-3,4′,5′,6′-tetrahydro-3H-spiro [isobenzofuran-1,2′-pyran]-3′,4′,5′-triol]: the inhibition at 0.01 µM came to 19.4 ± 0.5% and the inhibition at 0.1 µM came out at 50.2 ± 10.8%.
On the same counts, the results for `C[C@H]1O[C@]2(OCc3cc(F)c(Cc4cc5ccccc5o4)cc32)[C@H](O)[C@@H](O)[C@@H]1O` [Example A48, (1S,3′R,4′S,5′S,6′R)-6′-methyl-6-(benzo[b]furan-2-methyl)-5-fluoro-3′,4′,5′,6′-tetrahydro-3H-spiro[isobenzofuran-1,2′-pyran]-3′,4′,5′-triol] are 13.1 ± 8.4% and 33.2 ± 10.1%.
On the same counts, the results for `C[C@H]1O[C@]2(OCc3cc(Cl)c(Cc4ccc(C5(C#N)CC5)cc4)cc32)[C@H](O)[C@@H](O)[C@@H]1O` [Example A108, 1-(4-(((1S,3′R,4′S,5′S,6′R)-5-chloro-3′,4′,5′-trihydroxy-6′-methyl-3′,4′,5′,6′-tetrahydro-3H-spiro[isobenzofuran-1,2′-pyran]-6-yl)methyl)phenyl)cyclopropane-1-formonitrile] are 100.4 ± 0.9% and 96.2 ± 3.4%.
On the same counts, the results for `C[C@H]1O[C@]2(OCc3ccc(Cc4cc5ccccc5s4)cc32)[C@H](O)[C@@H](O)[C@@H]1O` [Example A15, (1S,3′R,4′S,5′S,6′R)-6′-methyl-6-(benzo[b]thiophene-2-methyl)-3′,4′,5′,6′-tetrahydro-3H-spiro[isobenzofuran-1,2′-pyran]-3′,4′,5′-triol] are 46.9 ± 4% and 50.8 ± 4.4%.
With `C[C@H]1O[C@]2(OCc3ccc(Cc4ccc(-c5ccccc5)s4)cc32)[C@H](O)[C@@H](O)[C@@H]1O` [Example A12, (1S,3′R,4′S,5′S,6′R)-6′-methyl-6-((5-phenylthienyl)-2-methyl)-3′,4′,5′,6′-tetrahydro-3H-spiro [isobenzofuran-1,2′-pyran]-3′,4′,5′-triol], the inhibition at 0.01 µM amounted to 20.4 ± 28.4% and the inhibition at 0.1 µM is 49.1 ± 20%.
On the same counts, the results for `C[C@H]1O[C@]2(OCc3cc(Cl)c(Cc4ccc(C5(C#N)CC5)s4)cc32)[C@H](O)[C@@H](O)[C@@H]1O` [Example A109, 1-(5-(((1S,3′R,4′S,5′S,6′R)-5-chloro-3′,4′,5′-trihydroxy-6′-methyl-3′,4′,5′,6′-tetrahydro-3H-spiro[isobenzofuran-1,2′-pyran]-6-yl)methyl)thiophene-2-yl)cyclopropane-1-formonitrile] are 86.8 ± 1.6% and 62.6 ± 7.2%.
On the same counts, the results for `CCOc1ccc(Cc2ccc3c(c2)[C@]2(OC3)O[C@H](C)[C@@H](O)[C@H](O)[C@H]2O)cc1` [Example A6, (1S,3′R,4′S,5′S,6′R)-6′-methyl-6-(4-ethyoxylbenzyl)-3′,4′,5′,6′-tetrahydro-3H-spiro[isobenzofuran-1,2′-pyran]-3′,4′,5′-triol] are 27 ± 15.7% and 27.6 ± 3.1%.
On the same counts, the results for `COc1ccc(Cc2ccc3c(c2)[C@]2(OC3)O[C@H](C)[C@@H](O)[C@H](O)[C@H]2O)cc1` [Example A5, (1S,3′R,4′S,5′S,6′R)-6′-methyl-6-(4-methoxybenzyl)-3′,4′,5′,6′-tetrahydro-3H-spiro[isobenzofuran-1,2′-pyran]-3′,4′,5′-triol] are 26 ± 14% and 28.9 ± 7.2%.
Regarding `C[C@H]1O[C@]2(OCc3cc(F)c(Cc4ccc(-c5ccccn5)s4)cc32)[C@H](O)[C@@H](O)[C@@H]1O` [Example A46, (1S,3′R,4′S,5′S,6′R)-6′-methyl-6-((5-(2-pyridyl)thienyl)-2-methyl)-5-fluoro-3′,4′,5′,6′-tetrahydro-3H-spiro[isobenzofuran-1,2′-pyran]-3′,4′,5′-triol], the inhibition at 0.01 µM amounted to 16 ± 14.8% and the inhibition at 0.1 µM worked out at 63.6 ± 2.4%.
